Measured values reported in PMC8632069 (Journal of medicinal chemistry, 2021).
Each block holds one compound with its values, some of them ahead of it.

Assays:
[1] = mice, IV, 10 mg/kg, plasma; cited from earlier work
[2] = tested on: Mfn2-null (i.e. expressing Mfn1 only) murine embryonic fibroblasts; test: Mitochondrial elongation; assay type: cell-based, mouse; settings: dose-response, compared with 2; result in words
[3] = Plasma and nerve tissue pharmacokinetics, single oral dose in non-fasted mice; assay type: in vivo; settings: male, CD-1, mouse, 50 mg/kg
[4] = tested on: mitofusin mRNA expression; settings: transcriptional enhancer of mitofusin mRNA expression; cited from earlier work

Compound: O=C(CCCCCc1ccccc1)N[C@H]1CC[C@H](O)CC1 [Compound 2]
- C0 [1]: 50,600 ng/mL

Compound: O=C(CCCCc1ccccc1)N[C@H]1CC[C@H](O)CC1 [Compound 3, N-((1r,4r)-4-hydroxycyclohexyl)-5-phenylpentanamide]
- mitofusin activation measured as ability to promote mitochondrial fusion (increased aspect ratio) [2]: largely abrogated mitofusin activation

Compound: O=C(CCCc1ccccc1)N[C@H]1CC[C@H](O)CC1 [Compound 4, N-((1r,4r)-4-hydroxycyclohexyl)-4-phenylbutanamide]
- mitofusin activation measured as ability to promote mitochondrial fusion (increased aspect ratio) [2]: largely abrogated mitofusin activation

- MRT inf ([3]; plasma): 3.58 h
- Tmax ([3]; plasma): 0.5 h
Compound: O=C(N[C@H]1CC[C@H](O)CC1)C1CC1CCCc1ccccc1 (stereo partly shown) [Compound 5, N-(4-hydroxycyclohexyl)-2-(3-phenylpropyl)cyclopropane-1-carboxamide]

- Kp ([3]; brain and plasma): 0.394
Compound: O=C(N[C@H]1CC[C@H](O)CC1)[C@@H]1C[C@H]1CCCc1ccccc1 [Compound 5B, N-(4-hydroxycyclohexyl)-2-(3-phenylpropyl)cyclopropane-1-carboxamide]

Compound: Cc1oncc1C(=O)Nc1ccc(C(F)(F)F)cc1 [leflunomide]
- effective concentrations [4]: 10 to 50 µM
